We go through 17 molecules from US11898114B2, “Reactions and methods for producing fuels” (Alliance for Sustainable Energy, LLC, priority 2020, dated 2024).

Like-named read-outs stand apart in the source and are kept apart here. Marks after values point to notes of the source that are not given here.

The conditions of data set [1]: literature values (Fioroni, et al.; Lautenschütz, et al.); cited from earlier work.
The conditions of data set [2]: literature values (Fioroni, et al.; Lautenschütz, et al.); cited from earlier work. The source holds these as a separate data set.
The conditions of data set [3]: literature values (Fioroni, et al.; Lautenschütz, et al.; reported); cited from earlier work.
Data set [4] in a line: Water solubility (extraction into water, TOC and GC-MS-FID). It is filed as physicochemical. The settings on record: component of B*POME1-6 extracted into water, 1:5 water:B*POME1-6. The protocol: The aqueous layer was then analyzed by total organic carbon (TOC) to determine the amount of the fuel product that was extracted into water. […] The concentration of each component was approximated from the FID response to estimate both the total amount of fuel product and relative solubility of individual components. […] Aqueous phases were diluted 1:2 with methanol. An Agilent 8890 GC/FID—5977B MS system was used for analysis. A volume of 1.0 μL was injected into a split/splitless inlet set to 275° C. and a split ratio of 1:100. Compounds were separated using an Rtx-50 column (50% phenyl polydimethylsiloxane, Restek) of dimensions 30 m×0.25 mm×0.25 μm with a helium carrier gas at a flow rate of 1.0 mL/min. A post column splitter was used to divert column effluent simultaneously to FID and MS detectors for qualitative and quantitative analysis. The GC oven temperature was held at 40° C. for 2 minutes, then ramped to 140° C. at 7° C./min, followed by a ramp to 290° C. at 12° C./min and held for 10 minutes. The MS transfer line and FID temperatures were set to 350° C. The MS detector was operated in continuous scan mode from m/z 29 to 300. The FID response was calibrated using a standard of 2,5-dimethylfuran prepared gravimetrically in acetone.

The nature of data set [5]: Lower heating value (ASTM D240-19). It counts as physicochemical. The note with it: neat, measured. The protocol:
(§1) Boiling point range of the target product was determined by a thermogravimetric analysis (TGA) based simulated distillation. Distillation temperatures were not determined via the standard method for diesel fuel, ASTM D86, due to the limited volume of sample available and gas chromatography based simulated distillation was not utilized given the relatively polar nature of POMEs. Analysis was conducted using a CAHN TG-131 TGA under flowing nitrogen with a ramp rate of 50° C./min from 25 to 550° C. The sample size was ca. 250 mg. The distillation parameters were selected to generate curves that closely matched ASTM D86 distillation values. […] Cloud point was measured using a Phase Technology Series 70X according to ASTM D5773; the method uncertainty is typically ±2.5° C. Flash point was measured according to ASTM D7094-17a with a method reproducibility stated as ±5.5° C. Indicated cetane number (ICN) was measured using an Advanced Fuel Ignition Delay Analyzer (AFIDA) instrument according to ASTM D8183-18 and where reproducibility is calculated as ±0.006407(ICN)^1.47. Higher heating value (HHV) and lower heating value (LHV) were determined according to ASTM D240-19 with a method reproducibility of ±0.4 MJ/kg.
(§2) Higher heating value (HHV) and lower heating value (LHV) were determined according to ASTM D240-19 with a method reproducibility of ±0.4 MJ/kg. […] Lubricity was measured using ASTM D6079-18. […]

A short description of data set [6]: Flash point (ASTM D7094-17a neat; D6450-16a blends). It counts as physicochemical. The settings on record: measured. How it is done:
as §1, §2

The nature of data set [7]: Boiling point range (TGA-based simulated distillation). It counts as physicochemical. The note with it: neat. How it is done: Boiling point range of the target product was determined by a thermogravimetric analysis (TGA) based simulated distillation. Distillation temperatures were not determined via the standard method for diesel fuel, ASTM D86, due to the limited volume of sample available and gas chromatography based simulated distillation was not utilized given the relatively polar nature of POMEs. Analysis was conducted using a CAHN TG-131 TGA under flowing nitrogen with a ramp rate of 50° C./min from 25 to 550° C. The sample size was ca. 250 mg. The distillation parameters were selected to generate curves that closely matched ASTM D86 distillation values. The results of this method were validated using a standard fuel oil designed for validating ASTM D86 (Accustandard). Cloud point was measured using a Phase Technology Series 70X according to ASTM D5773; the method uncertainty is typically ±2.5° C. Flash point was measured according to ASTM D7094-17a with a method reproducibility stated as ±5.5° C. Indicated cetane number (ICN) was measured using an Advanced Fuel Ignition Delay Analyzer (AFIDA) instrument according to ASTM D8183-18 and where reproducibility is calculated as ±0.006407(ICN)^1.47. Higher heating value (HHV) and lower heating value (LHV) were determined according to ASTM D240-19 with a method reproducibility of ±0.4 MJ/kg.

As to `COCOCOCOCOCOC` [MM-POME5], in data set [1], the Boiling point was 242^# °C. Besides, in data set [2], the Flash point is 115^# °C. Further, the LHV in data set [3] is listed as 19^# MJ/kg. For the same molecule, the “Aqueous layer concentration of component” value in data set [4] was determined as 1.1 g/L. In the case of `CCOCOCC` [EE-POME1], the LHV in data set [3] is 29^# MJ/kg. Consider `CCCCOCOCOCCCC` [BB-POME2], for which, in data set [4], the “Aqueous layer concentration of component” value was 0.1 g/L.

On to `COCOC` [MM-POME1, methylal], for which, in data set [3], the LHV is listed as 23^# MJ/kg.

`CCOCOCOCOCOCC` [EE-POME4]: in data set [3], the LHV is on record as 23^# MJ/kg. For `CCO` [ethanol], in data set [3], the LHV was 26.8 mJ/kg. In the case of `CCCCOCOCOCOCOCOC` [MB-POME5], the “Aqueous layer concentration of component” value in data set [4] is reported as 0.1 g/L. Still for that read-out and setting: the value for `COCOCOCOCOCOCOC` [MM-POME6] was 0.5 g/L.

As for `CCOCOCOCOCC` [EE-POME3], the LHV in data set [5] is 24 mJ/kg; in data set [3], 24^# MJ/kg. This molecule also returned a Flash point in data set [6] of 68 °C. Moreover, the “Boiling point / boiling range” value in data set [7] is 185 °C. Regarding `COCOCOCOC` [MM-POME3], the Boiling point in data set [1] was 156^# °C. Besides, the Flash point in data set [2] was 54^# °C. As to `CCCCOCOCOCOCOC` [MB-POME4], the “Aqueous layer concentration of component” value in data set [4] worked out at 0.4 g/L. As to `COCOCOC` [MM-POME2], the “Aqueous layer concentration of component” value in data set [4] is listed as 0.6 g/L. `CCOCOCOCC` [EE-POME2]: the LHV in data set [3] is reported as 26^# MJ/kg. For `COCOCOCOCOC` [MM-POME4], the Boiling point in data set [1] is 202^# °C. In data set [2], the Flash point is 88^# °C. Moreover, in data set [4], the “Aqueous layer concentration of component” value came to 1.5 g/L. As for `CCCCOCOCCCC` [BB-POME1, dibutoxymethane], the Boiling point in data set [1] is 187^$ °C. Further, the Flash point in data set [2] is 62^$ °C; in data set [6], 62 °C. The “Boiling point / boiling range” value in data set [7] is 179 °C. Besides, in data set [4], the “Aqueous layer concentration of component” value was found to be 0.2 g/L. `CCCCOCOCOC` [MB-POME2]: the “Aqueous layer concentration of component” value in data set [4] came out at 2.4 g/L.

For the molecule `CCCCOCOCOCOC` [MB-POME3], the “Aqueous layer concentration of component” value in data set [4] is given as 1.1 g/L.
